Laboratory results reported in paper PMC4341838 (Biochemistry, 2015).

Assay: Circular dichroism in POPC liposomes
Assay type: physicochemical
Settings: 1:250 peptide:lipid

Conformation by CD in POPC liposomes, in words: β-sheet-like conformation
Sequence: SSLSLLSLSWLSLSLLSLS [SLscr2]
